In patent US20250122223A1, “HETEROCYCLIC COMPOUNDS AS UBIQUITIN SPECIFIC PROTEASE 7 INHIBITORS” (ALMAC DISCOVERY LIMITED, priority 2022, published 2025):
pIC50: −log10 of the molar value. Where two headings read alike, the source gives them in different places.

Target: USP7 (Homo sapiens (Human), UniProt Q93009)
Assay: USP7 fluorescence polarisation (FP) assay with ubiquitin-Lys-TAMRA substrate
Assay type: biochemical
Conditions: biochemical inhibition; for pIC50: read-out: USP7 IC50 activity (Table 3a, classes); for IC50: unit not given in Table 3b (Table 1 and key of Table 3a use μM), read-out: USP7 IC50 activity (Table 3b)
Experimental: USP7 activity was monitored in a fluorescence polarisation (FP) homogeneous assay using the isopeptide ubiquitin-Lys-TAMRA substrate (U-558, Boston Biochem). Full-length USP7 was purchased from Boston Biochem (His6-USP7FL, E-519). Unless otherwise stated, all other reagents were purchased from Sigma-Aldrich. Enzymatic reactions were conducted in black flat-bottom low volume polystyrene 384-well plates (Grenier) and 15 μL total volume. USP7 (2.5 nM, 5 μL) was incubated in assay buffer (50 mM HEPES (pH 7.2), 150 mM NaCl, 5 mM DTT, 0.05% BSA (w/v), 0.05% CHAPS) in the presence or absence of inhibitor (5 μL). Inhibitors were stored as 10 mM DMSO stocks in an inert environment (low humidity, dark, low oxygen, room temperature) using a Storage Pod System and serial dilutions were prepared in buffer just prior to the assay (from 200 to 0.003 μM, 11 dp curve). Following incubation at room temperature for 30 min, the enzymatic reactions were initiated by dispensing the Ub substrate (50 nM, 5 μL). FP was measured every 5 min over a period of 1.5 h (within the linear range of the assay) using a Pherastar FSX (BMG Labtech) exciting at 530 nm and measuring the amount of parallel and perpendicular light at 575 nm. The FP signal was subsequently normalised to the control without compound present. Data were plotted and fitted, and the concentrations resulting in 50% inhibition (IC50) were calculated using the non-linear regression curve fitting model using GraphPad Prism.

USP7, sequence (Q93009 whole entry): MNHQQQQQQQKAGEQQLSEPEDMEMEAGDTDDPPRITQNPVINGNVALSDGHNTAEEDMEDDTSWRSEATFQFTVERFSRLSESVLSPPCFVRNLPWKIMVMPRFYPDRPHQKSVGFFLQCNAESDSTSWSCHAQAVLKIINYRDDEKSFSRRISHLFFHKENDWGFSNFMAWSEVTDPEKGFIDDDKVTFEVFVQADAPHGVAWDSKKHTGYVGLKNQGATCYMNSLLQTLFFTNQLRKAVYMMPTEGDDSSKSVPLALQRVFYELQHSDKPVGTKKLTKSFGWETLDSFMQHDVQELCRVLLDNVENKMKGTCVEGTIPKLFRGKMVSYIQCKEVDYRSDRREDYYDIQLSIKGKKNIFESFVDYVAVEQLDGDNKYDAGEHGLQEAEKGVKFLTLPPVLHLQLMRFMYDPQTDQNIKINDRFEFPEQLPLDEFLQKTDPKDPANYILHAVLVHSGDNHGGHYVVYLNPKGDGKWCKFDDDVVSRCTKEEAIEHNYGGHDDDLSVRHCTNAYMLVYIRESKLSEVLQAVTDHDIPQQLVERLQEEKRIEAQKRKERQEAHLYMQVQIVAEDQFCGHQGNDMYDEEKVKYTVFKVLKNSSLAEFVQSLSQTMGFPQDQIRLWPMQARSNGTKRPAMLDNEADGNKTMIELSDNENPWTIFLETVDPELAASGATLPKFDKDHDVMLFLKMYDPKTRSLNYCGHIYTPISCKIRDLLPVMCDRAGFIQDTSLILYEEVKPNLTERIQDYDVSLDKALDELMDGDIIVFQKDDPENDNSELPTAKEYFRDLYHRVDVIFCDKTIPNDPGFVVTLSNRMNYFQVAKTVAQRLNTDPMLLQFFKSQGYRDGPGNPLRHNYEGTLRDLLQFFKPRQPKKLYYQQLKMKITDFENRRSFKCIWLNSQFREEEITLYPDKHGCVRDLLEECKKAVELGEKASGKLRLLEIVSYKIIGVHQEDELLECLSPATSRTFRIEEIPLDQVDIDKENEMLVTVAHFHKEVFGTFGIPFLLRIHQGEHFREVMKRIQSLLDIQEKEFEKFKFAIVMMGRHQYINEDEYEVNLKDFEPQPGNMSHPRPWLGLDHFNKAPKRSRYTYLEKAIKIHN

pIC50 | IC50 | Structure (SMILES)
> 7.00 | 0.017 µM | CC1(C)CN[C@@H](c2ccc(-n3c(Cl)cc4c(=O)n(CC5(O)CCN(C(=O)C[C@H](c6ccccc6)C(F)(F)F)CC5)cnc43)cc2)CO1 (mixture of isomers) [Example 10, 6-Chloro-7-(4-((S)-6,6-dimethylmorpholin-3-yl)phenyl)-3-((4-hydroxy-1-((R)-4,4,4-trifluoro-3-phenylbutanoyl)piperidin-4-yl)methyl)-3,7-dihydro-4H-pyrrolo[2,3-d]pyrimidin-4-one and 6-chloro-7-(4-((R)-6,6-dimethylmorpholin-3-yl)phenyl)-3-((4-hydroxy-1-((R)-4,4,4-trifluoro-3-phenylbutanoyl)piperidin-4-yl)methyl)-3,7-dihydro-4H-pyrrolo[2,3-d]pyrimidin-4-one]
6.60 to 7.00 | 0.134 µM | O=C(C[C@H](c1ccccc1)C(F)(F)F)N1CCC(O)(Cn2cnc3c(cc(Cl)n3-c3ccc([C@H]4COCCN4)c(Cl)c3)c2=O)CC1 (mixture of isomers) [Example 86, 6-Chloro-7-(3-chloro-4-((S)-morpholin-3-yl)phenyl)-3-((4-hydroxy-1-((R)-4,4,4-trifluoro-3-phenylbutanoyl)piperidin-4-yl)methyl)-3,7-dihydro-4H-pyrrolo[2,3-d]pyrimidin-4-one and 6-chloro-7-(3-chloro-4-((R)-morpholin-3-yl)phenyl)-3-((4-hydroxy-1-((R)-4,4,4-trifluoro-3-phenylbutanoyl)piperidin-4-yl)methyl)-3,7-dihydro-4H-pyrrolo[2,3-d]pyrimidin-4-one (1:1)]
> 7.00 | 0.03 µM | C[C@H]1CN[C@H](c2ccc(-n3c(Cl)cc4c(=O)n(CC5(O)CCN(C(=O)C6(C)CC6)CC5)cnc43)cc2)CO1 (racemic) [Example 1, rac-6-Chloro-3-((4-hydroxy-1-(1-methylcyclopropane-1-carbonyl)piperidin-4-yl)methyl)-7-(4-((3R,6S)-6-methylmorpholin-3-yl)phenyl)-3,7-dihydro-4H-pyrrolo[2,3-d]pyrimidin-4-one]
> 7.00 | 0.046 µM | C[C@H]1COC[C@@H](c2ccc(-n3c(Cl)cc4c(=O)n(CC5(O)CCN(C(=O)C6(C)CC6)CC5)cnc43)cc2)N1 (racemic) [Example 2, rac-6-Chloro-3-((4-hydroxy-1-(1-methylcyclopropane-1-carbonyl)piperidin-4-yl)methyl)-7-(4-((3R,5S)-5-methylmorpholin-3-yl)phenyl)-3,7-dihydro-4H-pyrrolo[2,3-d]pyrimidin-4-one]
5.70 to 6.60 | 0.42 µM | O=C(c1ccc(Cl)cc1)N1CCC(O)(Cn2cnc3c(cc(Cl)n3-c3ccc([C@@H]4CO[C@@H](C(F)(F)F)CN4)cc3)c2=O)CC1 (racemic) [Example 9, rac-6-Chloro-3-((1-(4-chlorobenzoyl)-4-hydroxypiperidin-4-yl)methyl)-7-(4-((3R,6R)-6-(trifluoromethyl)morpholin-3-yl)phenyl)-3,7-dihydro-4H-pyrrolo[2,3-d]pyrimidin-4-one]
6.60 to 7.00 | 0.175 µM | C[C@H]1CN[C@H](c2ccc(-n3ccc4c(=O)n(CC5(O)CCN(C(=O)c6ccc(Cl)cc6)CC5)cnc43)cc2)CO1 (racemic) [Example 17, rac-3-((1-(4-Chlorobenzoyl)-4-hydroxypiperidin-4-yl)methyl)-7-(4-((3R,6S)-6-methylmorpholin-3-yl)phenyl)-3,7-dihydro-4H-pyrrolo[2,3-d]pyrimidin-4-one]
> 7.00 | 0.05 µM | O=C(N1CCC(O)(Cn2cnc3c(cc(Cl)n3-c3ccc([C@@H]4COC5(CCC5)CN4)cc3)c2=O)CC1)C1(C2CC2)CC1 (racemic) [Example 43, 7-(4-(5-Oxa-8-azaspiro[3.5]nonan-7-yl)phenyl)-3-((1-([1,1′-bi(cyclopropane)]-1-carbonyl)-4-hydroxypiperidin-4-yl)methyl)-6-chloro-3,7-dihydro-4H-pyrrolo[2,3-d]pyrimidin-4-one]
6.60 to 7.00 | 0.113 µM | O=C(c1ccc(Cl)cc1)N1CCC(O)(Cn2cnc3c(cc(Cl)n3-c3ccc([C@@H]4COC5(CCC5)CN4)cc3)c2=O)CC1 (racemic) [Example 44, 7-(4-(5-Oxa-8-azaspiro[3.5]nonan-7-yl)phenyl)-6-chloro-3-((1-(4-chlorobenzoyl)-4-hydroxypiperidin-4-yl)methyl)-3,7-dihydro-4H-pyrrolo[2,3-d]pyrimidin-4-one]
6.60 to 7.00 | 0.143 µM | CC1(C)CN[C@@H](c2ccc(-n3c(Cl)cc4c(=O)n(CC5(O)CCN(C(=O)c6ccc(Cl)cc6)CC5)cnc43)cc2)CO1 (single isomer, unassigned) [Example 23]
6.60 to 7.00 | 0.161 µM | C[C@H]1COC[C@@H](c2ccc(-n3c(Cl)cc4c(=O)n(CC5(O)CCN(C(=O)c6ccc(Cl)cc6)CC5)cnc43)cc2)N1 (single isomer, unassigned) [Example 26]
6.60 to 7.00 | 0.194 µM | C[C@@H]1COC[C@H](c2ccc(-n3c(Cl)cc4c(=O)n(CC5(O)CCN(C(=O)c6ccc(Cl)cc6)CC5)cnc43)cc2)N1 (single isomer, unassigned) [Example 27]
6.60 to 7.00 | 0.218 µM | CC1(C)CN[C@@H](c2ccc(-n3c(Cl)cc4c(=O)n(CC5(O)CCN(C(=O)c6ccc(F)cc6)CC5)cnc43)cc2)CO1 (single isomer, unassigned) [Example 28]
6.60 to 7.00 | 0.118 µM | CC1(C)CN[C@H](c2ccc(-n3c(Cl)cc4c(=O)n(CC5(O)CCN(C(=O)c6ccc(F)cc6)CC5)cnc43)cc2)CO1 (single isomer, unassigned) [Example 29]
6.60 to 7.00 | 0.226 µM | C[C@H]1CN[C@H](c2ccc(-n3c(Cl)cc4c(=O)n(CC5(O)CCN(C(=O)[C@@]6(C)C[C@@H]6C(F)(F)F)CC5)cnc43)cc2)CO1 (single isomer, unassigned) [Example 33, 6-Chloro-3-((4-hydroxy-1-((1R,2R)-1-methyl-2-(trifluoromethyl)cyclopropane-1-carbonyl)piperidin-4-yl)methyl)-7-(4-((3R,6S)-6-methylmorpholin-3-yl)phenyl)-3,7-dihydro-4H-pyrrolo[2,3-d]pyrimidin-4-one or 6-chloro-3-((4-hydroxy-1-((1S,2S)-1-methyl-2-(trifluoromethyl)cyclopropane-1-carbonyl)piperidin-4-yl)methyl)-7-(4-((3R,6S)-6-methylmorpholin-3-yl)phenyl)-3,7-dihydro-4H-pyrrolo[2,3-d]pyrimidin-4-one]
> 7.00 | 0.088 µM | CC1(C)CN[C@H](c2ccc(-n3c(Cl)cc4c(=O)n(CC5(O)CCN(C(=O)c6ccc(Cl)cc6)CC5)cnc43)cc2)CO1 (single isomer, unassigned) [Example 34]
6.60 to 7.00 | 0.156 µM | CC1(C)CN[C@H](c2ccc(-n3c(Cl)cc4c(=O)n(CC5(O)CCN(C(=O)C6(C7CC7)CC6)CC5)cnc43)cc2)CO1 (single isomer, unassigned) [Example 40]
> 7.00 | 0.079 µM | CC1(C)CN[C@H](c2ccc(-n3c(Cl)cc4c(=O)n(CC5(O)CCN(C(=O)C6(C7CC7)CC6)CC5)cnc43)cc2)CO1 (single isomer, unassigned) [Example 41]
6.60 to 7.00 | 0.128 µM | O=C(c1ccc(Cl)cc1)N1CCC(O)(Cn2cnc3c(cc(Cl)n3-c3ccc([C@H]4CO[C@H](C5CC5)CN4)cc3)c2=O)CC1 (single isomer, unassigned) [Example 61]
6.60 to 7.00 | 0.11 µM | O=C(c1ccc(Cl)cc1)N1CCC(O)(Cn2cnc3c(cc(Cl)n3-c3ccc([C@@H]4CO[C@@H](C5CC5)CN4)cc3)c2=O)CC1 (single isomer, unassigned) [Example 64]
5.70 to 6.60 | 0.702 µM | C[C@H]1CN[C@@H](c2ccc(-n3c(Cl)cc4c(=O)n(CC5(O)CCN(C(=O)c6ccc(Cl)cc6)CC5)cnc43)cc2)CO1 (single isomer, unassigned) [Example 68]
5.70 to 6.60 | 0.586 µM | C[C@@H]1CN[C@H](c2ccc(-n3c(Cl)cc4c(=O)n(CC5(O)CCN(C(=O)c6ccc(Cl)cc6)CC5)cnc43)cc2)CO1 (single isomer, unassigned) [Example 69]
> 7.00 | 0.022 µM | CC1(C(=O)N2CCC(O)(Cn3cnc4c(cc(Cl)n4-c4ccc([C@H]5COCCN5)cc4)c3=O)CC2)CC1 (single isomer, unassigned) [Example 70]

Structure (SMILES) | pIC50 | IC50
O=C(C[C@H](c1ccccc1)C(F)(F)F)N1CCC(O)(Cn2cnc3c(cc(Cl)n3-c3ccc([C@H]4COCCN4)c(C(F)(F)F)c3)c2=O)CC1 (mixture of isomers) [Example 87, 6-Chloro-3-((4-hydroxy-1-((R)-4,4,4-trifluoro-3-phenylbutanoyl)piperidin-4-yl)methyl)-7-(4-((S)-morpholin-3-yl)-3-(trifluoromethyl)phenyl)-3,7-dihydro-4H-pyrrolo[2,3-d]pyrimidin-4-one and 6-chloro-3-((4-hydroxy-1-((R)-4,4,4-trifluoro-3-phenylbutanoyl)piperidin-4-yl)methyl)-7-(4-((R)-morpholin-3-yl)-3-(trifluoromethyl)phenyl)-3,7-dihydro-4H-pyrrolo[2,3-d]pyrimidin-4-one (1:1)] | 5.70 to 6.60 | 0.292 µM
